{
  "source": "paper PMC10144058",
  "about": "“New Hybrid Scaffolds Based on 5-FU/Curcumin: Synthesis, Cytotoxic, Antiproliferative and Pro-Apoptotic Effect” (Pharmaceutics, 2023)",
  "key": {"[1]": {"system": "SW620 cells", "assay": "Cell cycle analysis (PI, flow cytometry)", "assay_type": "cell-based, human", "settings": "SW620, treated with IC50 value, 48 h", "method": "(§1) The method used for the recognition of cell cycle phases (G0/G1, S, G2/M) was based on staining with a fluorescent dye (propidium iodide—PI), as a direct relationship between fluorescence intensity and DNA content can be established. For this method, 250,000 cells/well were initially seeded in 6-well culture plates with an adherence period of 24 h at 37 °C in a 5% CO2 atmosphere. […] After treatment, cells were obtained by mechanical disaggregation, and the cell pellet was centrifuged and washed with a versene buffer. The cell pellet was fixed with 1.8 mL of cold 70% ethanol and kept at 4 °C overnight. Subsequently, two washes with a versene buffer were performed, and the pellet was resuspended in 300 µL of PBS containing 0.25 mg/mL of RNAsa and 0.1 mg/mL of PI. After a 30 min period of dark incubation, the fluorescence of 10,000 cells was analyzed using a FACS Canto II flow cytometer. The PI signal was analyzed with excitation at 488 nm using a sapphire laser, and fluorescence was detected at 610 nm. The data analysis was performed with FlowJo 10.8.1 software."}, "[2]": {"system": "SW480 cells", "assay": "Cell cycle analysis (PI, flow cytometry)", "assay_type": "cell-based, human", "settings": "SW480, treated with IC50 value, 48 h", "method": "as §1"}, "[3]": {"system": "SW480 cells", "assay": "Cell death induction (Annexin-V/PI, flow cytometry)", "assay_type": "cell-based, human", "settings": "SW480, treated with IC50, 48 h", "method": "For this method, 250,000 cells/well were initially seeded in 6-well culture plates during a 24 h adherence period at 37 °C in a 5% CO2 atmosphere. […] After treatment, cells were obtained by mechanical disaggregation, resuspended in a solution with Annexin-V-FLUOS and PI, and incubated for 20 min in the dark before flow cytometry analysis."}, "[4]": {"system": "caspase 3, caspase 7, caspase 8 and p53 in SW620 cells", "assay": "Apoptotic biomarkers (ELISA)", "assay_type": "cell-based, human", "settings": "SW620, treated with IC50, 48 h, vs control", "method": "(§2) To provide an approach to the possible molecular mechanisms through which the hybrid compounds induce an effect on the cell lines, different proteins related to the process of death by apoptosis were determined. For this method, 1,000,000 cells were initially seeded per Petri dish, with an adherence period of 24 h at 37 °C in a 5% CO2 atmosphere. […] Later, the consumed medium was discarded, and after the addition of the versene buffer, the cells were obtained by mechanical disaggregation. The cells were then lysed with a cell lysis buffer and centrifuged to obtain the supernatant, which was used to determine the biomarkers of interest by enzyme-linked immunosorbent assays. These ELISA kits were provided by Elabscience Biotechnology Co., Houston, TX, USA [26]."}, "[5]": {"system": "caspase 3, caspase 7, caspase 8 and p53 in SW480 cells", "assay": "Apoptotic biomarkers (ELISA)", "assay_type": "cell-based, human", "settings": "SW480, treated with IC50, 48 h, vs control", "method": "as §2"}, "[6]": {"system": "SW620 cells", "assay": "Mitochondrial membrane potential (DiOC6/PI, flow cytometry)", "assay_type": "cell-based, human", "settings": "SW620, treated with IC50, 48 h", "method": "(§3) The fluorescent dyes PI and DIOC6 (3,3’-dihexyloxacarbocyanine iodide) were used to observe the depolarization of the mitochondrial membrane as well as possible cell membrane damage. For this method, 250,000 cells/well were initially seeded in 6-well culture plates during a 24 h adherence period at 37 °C in a 5% CO2 atmosphere. […] After treatment, cells were obtained by mechanical disaggregation, stained with DiOC6 and PI, and incubated at room temperature for 30 min in the dark. Ten thousand events were analyzed by flow cytometry with excitation at 488 nm and emission detection with green (530/15 nm) and red (610/20 nm) filters."}, "[7]": {"system": "SW480 cells", "assay": "Mitochondrial membrane potential (DiOC6/PI, flow cytometry)", "assay_type": "cell-based, human", "settings": "SW480, treated with IC50, 48 h", "method": "as §3"}, "[8]": {"system": "HaCaT cells", "assay": "Cell viability, sulforhodamine B (SRB) assay, non-malignant cells", "assay_type": "cell-based", "settings": "Homo sapiens"}, "[9]": {"system": "SW480 cells", "assay": "Cell viability, sulforhodamine B (SRB) assay", "assay_type": "cell-based", "settings": "Homo sapiens"}, "[10]": {"system": "CHO-K1 cells", "assay": "Cell viability, sulforhodamine B (SRB) assay, non-malignant cells", "assay_type": "cell-based, Chinese Hamster", "settings": "Cricetulus griseus"}, "[11]": {"system": "SW620 cells", "assay": "Cell viability, sulforhodamine B (SRB) assay", "assay_type": "cell-based, human", "settings": "Homo sapiens"}},
  "data": [
    {"compound": "COc1cc(/C=C/C(=O)c2ccc(OCCCCCn3cc(Cn4cc(F)c(=O)[nH]c4=O)nn3)cc2)ccc1O", "note": "[Compound 6d, (E)-5-fluoro-1-((1-(5-(4-(3-(4-hydroxy-3-methoxyphenyl)acryloyl)phenoxy)pentyl)-1H-1,2,3-triazol-4-yl)methyl)pyrimidine-2,4(1H,3H)-dione]", "values": [
      {"measurement": "Cell cycle distribution, G0/G1", "setting": "[1]", "value": 4.4, "unit": "%"},
      {"measurement": "Cell cycle distribution, G2/M", "setting": "[1]", "value": 11.0, "unit": "%"},
      {"measurement": "Cell cycle distribution, S Phase", "setting": "[1]", "value": 24.7, "unit": "%"},
      {"measurement": "Cell cycle distribution, G0/G1", "setting": "[2]", "value": 42.9, "unit": "%"},
      {"measurement": "Cell cycle distribution, G2/M", "setting": "[2]", "value": 10.1, "unit": "%"},
      {"measurement": "Cell cycle distribution, S Phase", "setting": "[2]", "value": 20.0, "unit": "%"},
      {"measurement": "Cell cycle distribution, Sub G0/G1", "setting": "[2]", "value": 24.1, "unit": "%"},
      {"measurement": "Annexin V/PI quadrant Q3 (early apoptotic cells)", "setting": "[3]", "value": 50.2, "unit": "%"},
      {"measurement": "levels of biomarkers (caspase 3, caspase 7, caspase 8, p53)", "setting": "[4]", "value": "no significant differences"},
      {"measurement": "levels of biomarkers (caspase 3, caspase 7, caspase 8, p53)", "setting": "[5]", "value": "no significant differences"},
      {"measurement": "Dioc6 High population (live cells with high membrane polarization)", "setting": "[6]", "value": 19.2, "unit": "%"},
      {"measurement": "Dioc6 Low population (cells that lose membrane polarization)", "setting": "[6]", "value": 0.11, "unit": "%"},
      {"measurement": "PI+ population (membrane damage or dead cells)", "setting": "[6]", "value": 76.1, "unit": "%"},
      {"measurement": "changes in the mitochondrial membrane potential", "setting": "[6]", "value": "do not induce significant changes"},
      {"measurement": "Dioc6 High population (live cells with high membrane polarization)", "setting": "[7]", "value": 76.2, "unit": "%"},
      {"measurement": "Dioc6 Low population (cells that lose membrane polarization)", "setting": "[7]", "value": 0, "unit": "%"},
      {"measurement": "PI+ population (membrane damage or dead cells)", "setting": "[7]", "value": 23.7, "unit": "%"},
      {"measurement": "changes in the mitochondrial membrane potential", "setting": "[7]", "value": "do not induce significant changes"},
      {"measurement": "IC50", "setting": "[8]; 24 h", "value": "42.6 ± 6.93", "unit": "µM"},
      {"measurement": "IC50", "setting": "[8]; 48 h", "value": "20.3 ± 2.66", "unit": "µM"},
      {"measurement": "IC50", "setting": "[9]; SW480, 24 h", "value": "15.7 ± 1.91", "unit": "µM"},
      {"measurement": "IC50", "setting": "[9]; SW480, 48 h", "value": "2.43 ± 0.33", "unit": "µM"},
      {"measurement": "IC50", "setting": "[10]; CHO-K1, 24 h", "value": "12.4 ± 1.34", "unit": "µM"},
      {"measurement": "IC50", "setting": "[10]; CHO-K1, 48 h", "value": "28.1 ± 1.95", "unit": "µM"},
      {"measurement": "IC50", "setting": "[11]; SW-620, 24 h, 24 h", "value": "37.1 ± 3.05", "unit": "µM"},
      {"measurement": "IC50", "setting": "[11]; SW-620, 48 h, 48 h", "value": "7.51 ± 1.47", "unit": "µM"}
    ]}
  ]
}
